The record followed here is patent US11820822B2, “Methods for sensitizing cancer cells to T cell-mediated killing by modulating molecular pathways” (DANA-FARBER CANCER INSTITUTE, INC., priority 2017, dated 2023).

The test system of data set [1] is B16F10-Cas9 cells co-cultured with Pmel-1 T cells. The experiment in a line: Genome-scale CRISPR-Cas9 screen, selection with Pmel-1 T cells. It is filed as cell-based, mouse. The note with it: for Pmel+ (sgRNA Log(2) fold change, Pmel-1 selection versus control T cells): Table 3, B16F10-Cas9 cells pre-treated with IFNγ, co-cultured with Pmel-1 T cells 1:1 for three days, negative = depleted, positive = enriched; for logFC: Log(2) fold change of gRNAs per gene, genes depleted in Pmel-1 screen.

The subject of data set [2] is B16F10-Cas9 cells pulsed with SIINFEKL peptide, co-cultured with OT-I T cells. The experiment in a line: Genome-scale CRISPR-Cas9 screen, selection with OT-I T cells. The format is cell-based, mouse. Conditions: for OT1 (sgRNA Log(2) fold change, OT-I selection versus control T cells): Table 3, B16F10-Cas9 cells pulsed with SIINFEKL, co-cultured with OT-I T cells 1:1 for one day, negative = depleted, positive = enriched; for logFC: Log2 fold change of gRNAs per gene, OT-I screen, genes depleted (FDR < 0.05).

On to “ATGAGGTACAGCAGAAAGGT (chemistry not fully specified)”, for which the “Pmel+ (sgRNA Log(2) fold change, Pmel-1 selection versus control T cells)” value in data set [1] was determined as 0.90. Moreover, the “OT1 (sgRNA Log(2) fold change, OT-I selection versus control T cells)” value in data set [2] is given as -2.05.

For “ACAGCCTCCCAATATCTCAG (chemistry not fully specified)”, the “Pmel+ (sgRNA Log(2) fold change, Pmel-1 selection versus control T cells)” value in data set [1] was -0.54. For the same substance, the “OT1 (sgRNA Log(2) fold change, OT-I selection versus control T cells)” value in data set [2] was -3.56. With “CGGATGGCCACACGTAACAG (chemistry not fully specified)”, the “Pmel+ (sgRNA Log(2) fold change, Pmel-1 selection versus control T cells)” value in data set [1] is reported as 3.00. Besides, in data set [2], the “OT1 (sgRNA Log(2) fold change, OT-I selection versus control T cells)” value amounted to 0.20. The matching figures for “CCCACGAATTCGTCACAGGG (chemistry not fully specified)”: 2.63 and 1.32. The corresponding values for “TAAAAGTCCCTCCCTCAAAG (chemistry not fully specified)” are 0.00 and -2.56. On to “CATGAGGTAGAATAGTTCGT (chemistry not fully specified)”, for which the “Pmel+ (sgRNA Log(2) fold change, Pmel-1 selection versus control T cells)” value in data set [1] is 2.15. Further, in data set [2], the “OT1 (sgRNA Log(2) fold change, OT-I selection versus control T cells)” value was -0.65. “CTTCAGATCTCTCTCGAATG (chemistry not fully specified)”: the “Pmel+ (sgRNA Log(2) fold change, Pmel-1 selection versus control T cells)” value in data set [1] is -2.11. For the same substance, the “OT1 (sgRNA Log(2) fold change, OT-I selection versus control T cells)” value in data set [2] is given as -2.84. Take “CAGCATTGACAATACGACCA (chemistry not fully specified)”: the “Pmel+ (sgRNA Log(2) fold change, Pmel-1 selection versus control T cells)” value in data set [1] stood at 0.62. Further, in data set [2], the “OT1 (sgRNA Log(2) fold change, OT-I selection versus control T cells)” value was -3.84.

Turning to “ATTTGGATTTCAATGTGAGG (chemistry not fully specified)”, the “Pmel+ (sgRNA Log(2) fold change, Pmel-1 selection versus control T cells)” value in data set [1] is listed as 3.20. Moreover, the “OT1 (sgRNA Log(2) fold change, OT-I selection versus control T cells)” value in data set [2] is 5.19.

With “CATGCAATACATGCCAAAGG (chemistry not fully specified)”, in data set [1], the “Pmel+ (sgRNA Log(2) fold change, Pmel-1 selection versus control T cells)” value is -0.22. Further, the “OT1 (sgRNA Log(2) fold change, OT-I selection versus control T cells)” value in data set [2] is recorded as -2.39. The corresponding values for “TATACCAATACGCAAATACC (chemistry not fully specified)” are 4.34 and 4.07. As to “TATGGAGCGGTGTATGCCCG (chemistry not fully specified)”, the “Pmel+ (sgRNA Log(2) fold change, Pmel-1 selection versus control T cells)” value in data set [1] came to 1.27. Besides, the “OT1 (sgRNA Log(2) fold change, OT-I selection versus control T cells)” value in data set [2] is listed as -3.33. In the case of “CACACCCTTACTGCCCGTCG (chemistry not fully specified)”, the “Pmel+ (sgRNA Log(2) fold change, Pmel-1 selection versus control T cells)” value in data set [1] is recorded as -1.34. For the same substance, the “OT1 (sgRNA Log(2) fold change, OT-I selection versus control T cells)” value in data set [2] is -2.48.

Consider “GATATGCTACAGGACCTTCG (chemistry not fully specified)”, for which, in data set [1], the “Pmel+ (sgRNA Log(2) fold change, Pmel-1 selection versus control T cells)” value came to 0.44. In data set [2], the “OT1 (sgRNA Log(2) fold change, OT-I selection versus control T cells)” value is reported as -2.83.

As for “ACAGGGAAAGCATGGGACAC (chemistry not fully specified)”, the “Pmel+ (sgRNA Log(2) fold change, Pmel-1 selection versus control T cells)” value in data set [1] stood at 0.76. The “OT1 (sgRNA Log(2) fold change, OT-I selection versus control T cells)” value in data set [2] is recorded as -2.35.

“GGTTCGCTTCTTCCAAACCA (chemistry not fully specified)”: the “Pmel+ (sgRNA Log(2) fold change, Pmel-1 selection versus control T cells)” value in data set [1] is on record as -2.08. In data set [2], the “OT1 (sgRNA Log(2) fold change, OT-I selection versus control T cells)” value is on record as -2.41. Consider “TTACTGAGGCTCGATTGGGA (chemistry not fully specified)”, for which the “Pmel+ (sgRNA Log(2) fold change, Pmel-1 selection versus control T cells)” value in data set [1] amounted to 0.41. Moreover, the “OT1 (sgRNA Log(2) fold change, OT-I selection versus control T cells)” value in data set [2] was -3.59. The matching figures for “AGGTCACAATGTACCAACCC (chemistry not fully specified)”: -2.61 and -1.71.

For “GCAAATGTAGAAATGTCGTG (chemistry not fully specified)”, the “Pmel+ (sgRNA Log(2) fold change, Pmel-1 selection versus control T cells)” value in data set [1] was -0.65. The “OT1 (sgRNA Log(2) fold change, OT-I selection versus control T cells)” value in data set [2] is -2.34. With “TTACCCCCTACTACACTGGA (chemistry not fully specified)”, the “Pmel+ (sgRNA Log(2) fold change, Pmel-1 selection versus control T cells)” value in data set [1] is -2.24. In addition, the “OT1 (sgRNA Log(2) fold change, OT-I selection versus control T cells)” value in data set [2] is reported as -2.56. For the substance “TCAGCAACTGAGAACTCACT (chemistry not fully specified)”, the “Pmel+ (sgRNA Log(2) fold change, Pmel-1 selection versus control T cells)” value in data set [1] is given as -2.37. Further, the “OT1 (sgRNA Log(2) fold change, OT-I selection versus control T cells)” value in data set [2] is given as -1.37.

As for “CGGGTATTACAGACTAACTG (chemistry not fully specified)”, the “Pmel+ (sgRNA Log(2) fold change, Pmel-1 selection versus control T cells)” value in data set [1] is on record as 3.20. The “OT1 (sgRNA Log(2) fold change, OT-I selection versus control T cells)” value in data set [2] was determined as 2.71. The corresponding values for “TTAATGACGAGCTCGTGGAG (chemistry not fully specified)” are 8.60 and 2.25.

As for “GAACACTCAGCAAATTACAG (chemistry not fully specified)”, in data set [1], the “Pmel+ (sgRNA Log(2) fold change, Pmel-1 selection versus control T cells)” value is -0.81. Further, in data set [2], the “OT1 (sgRNA Log(2) fold change, OT-I selection versus control T cells)” value is recorded as -2.58. Consider “CCGCTCGAAGAAGCACTCCT (chemistry not fully specified)”, for which the “Pmel+ (sgRNA Log(2) fold change, Pmel-1 selection versus control T cells)” value in data set [1] is recorded as 0.95. In addition, the “OT1 (sgRNA Log(2) fold change, OT-I selection versus control T cells)” value in data set [2] is on record as -3.04.

Take “GTAGACAACAACATTCGCAG (chemistry not fully specified)”: the “Pmel+ (sgRNA Log(2) fold change, Pmel-1 selection versus control T cells)” value in data set [1] was 2.97. In data set [2], the “OT1 (sgRNA Log(2) fold change, OT-I selection versus control T cells)” value was 0.33.

For the substance “GAAGTAAAGGGATTTAACAG (chemistry not fully specified)”, the “Pmel+ (sgRNA Log(2) fold change, Pmel-1 selection versus control T cells)” value in data set [1] is recorded as -0.84. For the same substance, the “OT1 (sgRNA Log(2) fold change, OT-I selection versus control T cells)” value in data set [2] was -2.59.

Turning to “TTATTGAGTCAAGAAAAGGT (chemistry not fully specified)”, the “Pmel+ (sgRNA Log(2) fold change, Pmel-1 selection versus control T cells)” value in data set [1] was -1.87. In data set [2], the “OT1 (sgRNA Log(2) fold change, OT-I selection versus control T cells)” value was -3.67. For “GTATAAGCCATTACGACGCA (chemistry not fully specified)”, the “Pmel+ (sgRNA Log(2) fold change, Pmel-1 selection versus control T cells)” value in data set [1] is recorded as -1.52. For the same substance, the “OT1 (sgRNA Log(2) fold change, OT-I selection versus control T cells)” value in data set [2] is -2.81. Consider “AAACATATAGTGTACCTCTA (chemistry not fully specified)”, for which the “Pmel+ (sgRNA Log(2) fold change, Pmel-1 selection versus control T cells)” value in data set [1] is given as 10.21. Besides, the “OT1 (sgRNA Log(2) fold change, OT-I selection versus control T cells)” value in data set [2] is recorded as 2.36. The matching figures for “GGAATCCCTGTGCTGATCGT (chemistry not fully specified)”: -0.49 and -2.76.

On to “AGAAGCCACTCGGACTACTG (chemistry not fully specified)”, for which, in data set [1], the “Pmel+ (sgRNA Log(2) fold change, Pmel-1 selection versus control T cells)” value was 2.77. In addition, the “OT1 (sgRNA Log(2) fold change, OT-I selection versus control T cells)” value in data set [2] is given as -0.30. The corresponding values for “CACCGGATCGTCCAATTCCG (chemistry not fully specified)” are -0.88 and -2.82. “CCTGGGCTAGCACATAACCA (chemistry not fully specified)”: in data set [1], the “Pmel+ (sgRNA Log(2) fold change, Pmel-1 selection versus control T cells)” value is 0.10. For the same substance, the “OT1 (sgRNA Log(2) fold change, OT-I selection versus control T cells)” value in data set [2] is recorded as -3.35. The matching figures for “ACTAATGGACTCGCACACGT (chemistry not fully specified)”: 2.09 and -0.42.

Take “GAATGATATTATAGCGACGA (chemistry not fully specified)”: the “Pmel+ (sgRNA Log(2) fold change, Pmel-1 selection versus control T cells)” value in data set [1] worked out at 0.59. Also, the “OT1 (sgRNA Log(2) fold change, OT-I selection versus control T cells)” value in data set [2] is -2.20. The matching figures for “TCATAGCCAGAGCATACTCT (chemistry not fully specified)”: -1.33 and -3.24. The matching figures for “GTTTCTGGCATCCAAAGTAG (chemistry not fully specified)”: 0.80 and -2.50. On to “CAAAGTCTGCTGTCCGACCT (chemistry not fully specified)”, for which the “Pmel+ (sgRNA Log(2) fold change, Pmel-1 selection versus control T cells)” value in data set [1] turned out to be 2.57. In data set [2], the “OT1 (sgRNA Log(2) fold change, OT-I selection versus control T cells)” value stood at 0.41.

For the substance “GGCCCCGACTCAGACCCGCG (chemistry not fully specified)”, in data set [1], the “Pmel+ (sgRNA Log(2) fold change, Pmel-1 selection versus control T cells)” value is 3.60. Besides, the “OT1 (sgRNA Log(2) fold change, OT-I selection versus control T cells)” value in data set [2] is reported as 5.15. For “TTCGGACAAATACGACGACG (chemistry not fully specified)”, the “Pmel+ (sgRNA Log(2) fold change, Pmel-1 selection versus control T cells)” value in data set [1] worked out at 0.00. Moreover, the “OT1 (sgRNA Log(2) fold change, OT-I selection versus control T cells)” value in data set [2] is listed as -2.32.

In data set [2], “Chic2 (guide GCTCAAGTACTCGCCCGACC; chemistry not fully specified)” showed a logFC of −2.09. In data set [1], “Cd36 (guide TAGGATATGGAACCAAACTG; chemistry not fully specified)” returned a logFC of −2.18. In data set [2], Ctps showed a logFC of −1.69. Same read-out and setting: the value for “Nudcd2 (guide GGTTCCTTGCGGGACTCCGT; chemistry not fully specified)” was −2.09; that for “Sepsecs (guide CACCGGATCGTCCAATTCCG; chemistry not fully specified)” was −2.62. Take “Tial1 (guide AATGCAATTGTGCATATGGG; chemistry not fully specified)”: in data set [1], the logFC is −2.01. Substance “Mrps21 (guide GCGTCGTCGACTTATGACTT; chemistry not fully specified)” had a logFC in data set [2] of −2.09.
